Data as given in patent US11643417B2, “Tetrahydrobenzofurodiazepinone compound and pharmaceutical use thereof” (priority 2020, dated 2023).
pKi: −log10 of the molar value. Read-outs that look alike come from different tables or passages of the source.

Target: human Pim-1 (Homo sapiens (Human), UniProt P11309)
Assay: biochemical
Type: biochemical
Conditions: Ki converted from IC50, purified human Pim-1, Pim2tide substrate, ADP-Glo; for pKi: read-out: hPim1 Ki; for Ki: hPim1 Ki (nM)
Description: The human Pim-1 inhibitory activity of the test compounds was evaluated as follows.
(1) Purification of Human Pim-1
DNA fragment in which a His-Tag sequence and a translation termination sequence are added to the 3′-end of human Pim-1 translation sequence was amplified by PCR (Polymerase Chain Reaction), using human Pim-1 gene-inserted plasmid DNA (Kazusa DNA Laboratory, model number FXC11400) as a template. The amplified DNA fragment was fused with pGEx-6P-1 (GE Healthcare Japan, model number 27-4597-1) digested with BamHI and EcoRI using In-Fusion HD Cloning Kit (Takara Bio, model number 639649). […] The base sequence of Pim-1 cloned into vector was determined by Dye Terminator method using BigDye Terminator v3.1 Cycle Sequencing Kit (Applied Biosystems, model number 4337456). […] Escherichia coli BL21 (DE3) (Merck KGaA, model number 69449-4) transformed with human Pim-1-expressed plasmid DNA was cultured in 2×YT medium (Becton Dickinson, model number 2404020) at 30° C., until the optical concentration at 620 nm (OD620) reached 0.6, and then cultured overnight at 20° C. in the presence of 0.5 mmol/L isopropyl b-D-1-thiogalactopyranoside. After the completion of so the culture, the cells were collected and suspended in Homogenate Buffer (50 mmol/L Tris-HCl (pH 7.5), 500 mmol/L NaCl, 1% Tween20, complete, EDTA-free (Roche, model number 1873580)), and the suspended cells were lysed by passing through a microfluidizer M-110H (Mizuho Kogyo Co., Ltd.). The lysate was centrifuged at 10,100×g for 10 minutes, 4° C., and the supernatant was filtered through MILLEX-HV Filter (0.45 μm) (Millipore, SLHV033RS) to remove the cell residues. The filtrate was loaded onto complete His-Tag Purification Resin (Roche Diagnostics, model number 05 893 682 0.01). The column was washed with Equilibration Buffer-1 (50 mmol/L Tris-HCl (pH 7.5), 500 mmol/L NaCl, 1% Tween 20) containing 5 mmol/L Imidazole, followed by Equilibration Buffer-1 containing 50 mmol/L Imidazole, the human Pim-1 to which GST-Tag derived from pGEx-6P-1 was eluted with Equilibration Buffer-1 containing 150 mmol/L imidazole. […] The protease reaction was carried out by stirring overnight at 4° C., and the human Pim-1 in which the GST-Tag sequence was cleaved was eluted. The eluate was loaded onto a gel filtration column (Superdex-200 […] (GE Healthcare, model number 17-5175-01)) equilibrated with Equilibration Buffer-3 (50 mmol/L Tris-HCl (pH 7.5), 500 mmol/L NaCl, 0.05% Tween20, 0.5 mmol/L EDTA, 2 mmol/L DTT, 10% Glycerol), and eluted. The eluate was used as a human Pim-1 purified fraction.
The protein concentration of the human Pim-1 purified fraction was measured with Pierce 660 nm Protein Assay Reagent (Thermo Fisher Scientific, model number 22660). The purified fraction was rapidly frozen in liquid nitrogen, and then stored at −80° C. The His-Tag-added human Pim-1 was detected by Western blotting using a mouse anti-His monoclonal antibody (WAKO, model number 011-23091).
(2) Evaluation of Human Pim-1 Inhibitory Activity
The calculation of the Pim-1 inhibitory activity of the compound was performed using the following solution according to the protocol attached to ADP-Glo Kinase Assay (cat. V9102, Promega). The purified enzyme of human Pim-1 described above was used.
(i) Preparation of Solution
The kinase buffer solution (50 mmol/L HEPES (pH 7.5), 5 mmol/L MgCl2, 1 mmol/L DTT, 0.05% BSA) was prepared by dissolving HEPES (Jena Bioscience), MgCl2 (Sigma-Aldrich), DTT (Sigma-Aldrich) and BSA (Sigma-Aldrich) in purified water.
The ATP solution (288 μmol/L) was prepared by dissolving 100 mmol/L ATP (Promega) in the kinase buffer solution.

Chain of human Pim-1 (P11309 whole entry): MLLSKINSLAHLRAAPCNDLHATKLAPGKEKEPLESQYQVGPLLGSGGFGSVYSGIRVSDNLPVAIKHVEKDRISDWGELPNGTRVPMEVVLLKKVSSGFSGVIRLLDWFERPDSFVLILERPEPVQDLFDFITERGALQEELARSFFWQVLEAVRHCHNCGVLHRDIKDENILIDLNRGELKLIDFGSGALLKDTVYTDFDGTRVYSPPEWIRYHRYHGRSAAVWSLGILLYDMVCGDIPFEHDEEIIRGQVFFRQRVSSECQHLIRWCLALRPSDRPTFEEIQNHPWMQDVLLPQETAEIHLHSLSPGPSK

Row | SMILES | pKi | Ki [nM]
1 | CC1(O)CCOC(C(F)(F)CN2CCNC(=O)c3oc4ccc(C(F)(F)F)cc4c32)C1 (racemic) [Example 11, 1-(2,2-difluoro-2-(4-hydroxy-4-methyltetrahydro-2H-pyran-2-yl)ethyl)-9-(trifluoromethyl)-1,2,3,4-tetrahydro-5H-benzofuro[3,2-e][1,4]diazepin-5-one] | – | 0.0596
2 | CC1(O)CCOC(C(F)(F)CN2CCNC(=O)c3oc4ccc(C(F)(F)F)cc4c32)C1 (racemic) [Example 12, 1-(2,2-difluoro-2-(4-hydroxy-4-methyltetrahydro-2H-pyran-2-yl)ethyl)-9-(trifluoromethyl)-1,2,3,4-tetrahydro-5H-benzofuro[3,2-e][1,4]diazepin-5-one] | – | 0.0388
3 | O=C1NCCN(CC(F)(F)C2CC3(CCO2)OCCO3)c2c1oc1ccc(C(F)(F)F)cc21 (racemic) [Example 46] | 10.15 | –
4 | O=C1NCCN(CC(F)(F)C2COCCO2)c2c1oc1ccc(C(F)(F)F)cc21 (racemic) [Example 56] | – | 0.0723
5 | O=C1NCCN(CC(F)(F)C2CC3(CCO2)COC3)c2c1oc1ccc(C(F)(F)F)cc21 (racemic) [Example 57] | 10.35 | –
6 | CC1COCC(CCN2CCNC(=O)c3oc4ccc(C(F)(F)F)cc4c32)O1 (racemic) [Example 115] | 9.17 | –
7 | [2H]C1(O)CCC(CCN2CCNC(=O)c3oc4ccc(C(F)(F)F)cc4c32)CC1 (relative stereo) [Example 91] | – | 0.198
8 | O=C1NCCN(CC(F)(F)C2CC(CO)CCO2)c2c1oc1ccc(C(F)(F)F)cc21 (single isomer, unassigned) [Example 14] | – | 0.0334
9 | O=C1NCCN(CC(F)(F)C2CC(CO)CCO2)c2c1oc1ccc(C(F)(F)F)cc21 (single isomer, unassigned) [Example 15] | – | 0.0289
10 | O=C1NCCN(CC(F)(F)C2COCCO2)c2c1oc1ccc(C(F)(F)F)cc21 (single isomer, unassigned) [Example 68] | 10.34 | –
11 | O=C1NCCN(CC(F)(F)C2COCCO2)c2c1oc1ccc(C(F)(F)F)cc21 (single isomer, unassigned) [Example 70] | 10.13 | –
12 | O=C1NCCN(CCC2CCC(O)(C(F)(F)CO)CC2)c2c1oc1ccc(C(F)(F)F)cc21 (single isomer, unassigned) [Example 118] | 9.90 | –
13 | CC1(O)CCC(CCN2CC3(CC3)NC(=O)c3oc4ccc(C(F)(F)F)cc4c32)CC1 (single isomer, unassigned) [Example 128] | 10.51 | –
14 | O=C1NCCN(CCC2CC(O)CCO2)c2c1oc1ccc(C(F)(F)F)cc21 (centres unmarked) [Example 1] | 9.16 | –
15 | CC1(C)OC[C@]2(CC[C@H](CCN3CCNC(=O)c4oc5ccc(C(F)(F)F)cc5c43)CC2)O1 [Example 2-01] | 8.80 | –
16 | O=C1OC[C@]2(CC[C@H](CCN3CCNC(=O)c4oc5ccc(C(F)(F)F)cc5c43)CC2)O1 [Example 2-02] | 9.37 | –
17 | CN1CCN(CC[C@H]2CC[C@](O)(CO)CC2)c2c(oc3ccc(C(F)(F)F)cc23)C1=O [Example 2-03] | 9.38 | –
18 | COC[C@]1(OC)CC[C@@H](CCN2CCNC(=O)c3oc4ccc(C(F)(F)F)cc4c32)CC1 [Example 2-04] | 8.90 | –
19 | COC[C@]1(OC)CC[C@@H](CCN2CCN(C)C(=O)c3oc4ccc(C(F)(F)F)cc4c32)CC1 [Example 2-05] | 7.88 | –
20 | C[C@H]1CN(CC[C@H]2CC[C@](O)(CO)CC2)c2c(oc3ccc(C(F)(F)F)cc23)C(=O)N1 [Example 2-06] | 10.13 | –
21 | C[C@@H]1CN(CC[C@H]2CC[C@](O)(CO)CC2)c2c(oc3ccc(C(F)(F)F)cc23)C(=O)N1 [Example 2-07] | 9.87 | –

More lines, main results first:

Row | pKi | SMILES | Ki [nM]
22 | 9.33 | N#CC1(CCO)CCOC(CCN2CCNC(=O)c3oc4ccc(C(F)(F)F)cc4c32)C1 (racemic) [Example 7] | –
23 | 9.07 | COC(C1CC(O)(CO)C1)C1(CN2CCNC(=O)c3oc4ccc(C(F)(F)F)cc4c32)CC1 (racemic) [Example 22] | –
24 | 9.09 | COC(C1CC(O)(CO)C1)C1(CN2CCNC(=O)c3oc4ccc(C(F)(F)F)cc4c32)CC1 (racemic) [Example 23] | –
25 | 9.94 | O=C1NCCN(CC(F)(F)C2CC3(CCC2(F)F)OCCO3)c2c1oc1ccc(C(F)(F)F)cc21 (racemic) [Example 55] | –
26 | 10.41 | O=C1CCC(F)(F)C(C(F)(F)CN2CCNC(=O)c3oc4ccc(C(F)(F)F)cc4c32)C1 (racemic) [Example 61] | –
27 | 9.40 | O=C1NCCN(CCC2COCCO2)c2c1oc1c(F)cc(C(F)(F)F)cc21 (racemic) [Example 76] | –
28 | 9.15 | CC1COCC(CCN2CCNC(=O)c3oc4ccc(C(F)(F)F)cc4c32)O1 (racemic) [Example 114] | –
29 | 8.93 | N#CC[C@H]1CO[C@H](CCN2CCNC(=O)c3oc4ccc(C(F)(F)F)cc4c32)CO1 (racemic) [Example 129] | –
30 | 8.93 | CS(=O)(=O)C[C@H]1CO[C@H](CCN2CCNC(=O)c3oc4ccc(C(F)(F)F)cc4c32)CO1 (racemic) [Example 130] | –
31 | 8.44 | O=C1NCCN(CCC2COCC(CO)O2)c2c1oc1ccc(C(F)(F)F)cc21 (racemic) [Example 132] | –
32 | 8.80 | O=C1NCCN(CCC2COCC(CO)O2)c2c1oc1ccc(C(F)(F)F)cc21 (racemic) [Example 133] | –
33 | 9.12 | O=C1NCCN(CCC2COCC(CF)O2)c2c1oc1ccc(C(F)(F)F)cc21 (racemic) [Example 134] | –
34 | 9.18 | O=C1NCCN(CCC2COCC(CF)O2)c2c1oc1ccc(C(F)(F)F)cc21 (racemic) [Example 135] | –
35 | 7.79 | CS(=O)(=O)CC1COCC(CCN2CCNC(=O)c3oc4ccc(C(F)(F)F)cc4c32)O1 (racemic) [Example 136] | –
36 | 8.27 | CS(=O)(=O)CC1COCC(CCN2CCNC(=O)c3oc4ccc(C(F)(F)F)cc4c32)O1 (racemic) [Example 137] | –
37 | 8.43 | N#CCC1COCC(CCN2CCNC(=O)c3oc4ccc(C(F)(F)F)cc4c32)O1 (racemic) [Example 139] | –
38 | 8.24 | N#CCC1COCC(CCN2CCNC(=O)c3oc4ccc(C(F)(F)F)cc4c32)O1 (racemic) [Example 140] | –
39 | 7.99 | CS(=O)(=O)C[C@H]1CO[C@@H](CCN2CCNC(=O)c3oc4ccc(C(F)(F)F)cc4c32)CO1 (racemic) [Example 141] | –
40 | 8.36 | N#CC[C@H]1CO[C@@H](CCN2CCNC(=O)c3oc4ccc(C(F)(F)F)cc4c32)CO1 (racemic) [Example 142] | –
41 | 9.02 | O=C1NCCN(CCC2CC3(CC(CO)C3)C2)c2c1oc1ccc(C(F)(F)F)cc21 (racemic) [Example 143] | –
42 | 9.98 | O=C1NCCN(CC(F)(F)C2CC(O)(C(F)F)CCO2)c2c1oc1ccc(C(F)(F)F)cc21 (single isomer, unassigned) [Example 52] | –
43 | 10.04 | O=C1NCCN(CC(F)(F)C2CC(O)(C(F)F)CCO2)c2c1oc1ccc(C(F)(F)F)cc21 (single isomer, unassigned) [Example 53] | –
44 | 9.84 | O=C1NCCN(CCC2CCC(O)(C(F)(F)CO)CC2)c2c1oc1ccc(C(F)(F)F)cc21 (single isomer, unassigned) [Example 119] | –
45 | 10.27 | CC1(O)CCC(CCN2CC3(CC3)NC(=O)c3oc4ccc(C(F)(F)F)cc4c32)CC1 (single isomer, unassigned) [Example 127] | –
46 | 9.67 | CC1(O)CCC(C(F)(F)CN2CCNC(=O)c3oc4ccc(C(F)(F)F)cc4c32)CC1 (single isomer, unassigned) [Example 147] | –
47 | 9.94 | CC1(O)CCC(C(F)(F)CN2CCNC(=O)c3oc4ccc(C(F)(F)F)cc4c32)CC1 (single isomer, unassigned) [Example 148] | –
